# Laboratory results published in US8945856B2, “Affinity-based detection of biological targets” (priority 2005, dated 2015).
# What was measured:
# E. coli cells = details: total analysis time 2.5 hours; cited from earlier work
# [1] = tested on: heat-killed E. coli O157:H7 cells; experiment: Array Biosensor direct assay: Cy5-labeled cells binding to immobilized magainin; details: magainin I covalently (directly) immobilized via GMBS
# [2] = tested on: heat-killed S. typhimurium cells; experiment: as above
# botulinum toxoid A = botulinum toxoid A (Clostridium botulinum, UniProt P0DPI0); format: binding
# Campylobacter sp. = experiment: Array Biosensor binding to directly immobilized magainin; details: analogous conditions
# Bacillus sp. = experiment: as above; details: analogous conditions
# E. coli = format: binding
# Salmonella = format: binding
# [3] = tested on: E. coli lipopolysaccharide (LPS); experiment: Fiber optic biosensor 5-minute competitive assay with polymyxin B as capture molecule (James et al.); format: binding; details: assuming LPS monomer 4-20 kDa and 1.2×10^6 LPS molecules per cell
# [4] = tested on: E. coli lipopolysaccharide (LPS); details: 5-minute competitive assays; cited from earlier work
# botulinum toxoid A, sequence (P0DPI0 whole entry, looked up): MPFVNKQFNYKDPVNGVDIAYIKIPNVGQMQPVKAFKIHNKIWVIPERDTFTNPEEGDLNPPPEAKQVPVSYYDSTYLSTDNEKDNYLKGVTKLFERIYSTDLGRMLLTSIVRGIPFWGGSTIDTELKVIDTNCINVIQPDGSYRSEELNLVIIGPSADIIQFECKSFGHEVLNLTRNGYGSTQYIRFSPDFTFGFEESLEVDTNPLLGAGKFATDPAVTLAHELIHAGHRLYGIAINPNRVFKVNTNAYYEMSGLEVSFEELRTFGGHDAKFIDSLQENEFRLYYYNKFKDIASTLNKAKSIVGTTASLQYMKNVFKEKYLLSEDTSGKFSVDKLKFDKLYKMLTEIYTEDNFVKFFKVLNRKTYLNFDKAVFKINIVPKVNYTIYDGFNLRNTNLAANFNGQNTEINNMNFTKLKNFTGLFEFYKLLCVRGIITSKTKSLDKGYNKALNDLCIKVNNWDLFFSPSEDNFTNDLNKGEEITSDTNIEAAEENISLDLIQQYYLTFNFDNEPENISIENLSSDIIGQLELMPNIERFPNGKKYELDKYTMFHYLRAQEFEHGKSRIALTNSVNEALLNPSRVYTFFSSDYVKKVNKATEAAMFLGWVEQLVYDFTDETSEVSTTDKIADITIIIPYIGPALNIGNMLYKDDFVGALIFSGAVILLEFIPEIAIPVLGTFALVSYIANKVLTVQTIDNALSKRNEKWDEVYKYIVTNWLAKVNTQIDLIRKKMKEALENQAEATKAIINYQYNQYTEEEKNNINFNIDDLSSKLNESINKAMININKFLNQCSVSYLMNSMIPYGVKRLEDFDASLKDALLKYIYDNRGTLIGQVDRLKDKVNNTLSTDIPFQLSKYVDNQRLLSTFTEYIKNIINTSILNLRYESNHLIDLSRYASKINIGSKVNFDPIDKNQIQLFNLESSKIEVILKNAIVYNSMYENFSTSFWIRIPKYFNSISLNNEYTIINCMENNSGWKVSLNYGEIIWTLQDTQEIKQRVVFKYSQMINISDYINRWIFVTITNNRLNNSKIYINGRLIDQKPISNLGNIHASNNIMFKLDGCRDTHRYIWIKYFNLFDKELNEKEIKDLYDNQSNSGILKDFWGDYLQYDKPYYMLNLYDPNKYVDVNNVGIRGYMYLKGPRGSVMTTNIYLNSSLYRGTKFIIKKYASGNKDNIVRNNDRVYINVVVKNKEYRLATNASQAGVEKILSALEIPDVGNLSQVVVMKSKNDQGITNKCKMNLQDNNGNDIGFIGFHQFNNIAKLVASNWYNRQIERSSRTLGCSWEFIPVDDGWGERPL
substance,measurement,setting,value
"Cecropin P1 (SWLSKTAKKLENSAKKRISEGIAIAIQGGPR; Cecropin-P1; UniProt P14661 14-44, looked up)",Detection limit for E. coli,E. coli cells,~10^7 cfu/mL
Magainin I (GIGKFLHSAGKFGKAFVGEIMKS; listed as Xenopus laevis),Detection limit for labelled E. coli,[1],1.6×10^5 cell/mL
same,Detection limit for labelled S. typhimurium,"[2]; magainin I covalently (directly) immobilized via GMBS, Cy5-labeled heat-killed cells",6.5×10^4 cell/mL
same,Concentration in solution during immobilization step at which bacterial binding saturated,"[2]; patterning solution, target bacteria",0.4 mM
same,Binding of botulinum toxoid to immobilized capture species,botulinum toxoid A,not
same,Binding of Campylobacter sp.,Campylobacter sp.,only trace binding
same,Binding of Bacillus sp.,Bacillus sp.,only trace binding
Bactenecin,LOD for E. coli,E. coli,10^2-10^3 cfu/ml
Polymyxin B,Binding of botulinum toxoid to immobilized capture species,botulinum toxoid A,less strongly
same,LOD for Salmonella,Salmonella,10^5 cfu/ml
same,Detection limit calculated as number of bacteria per mL,[3],3×10^5-1.3×10^6 cells/mL
same,Detection limit for E. coli LPS,[4],approx. 10 ng/mL
Cecropin A (KWKLFKKIEKVGQNIRDGIIKAGPAVAVVGQATQIAK),Binding of botulinum toxoid to immobilized capture species,botulinum toxoid A,bound
same,Estimated limit of detection compared with antibody-based assays,botulinum toxoid A,significantly lower
same,"Preferential binding, toxoid A versus toxoid B",botulinum toxoid A,bound preferentially by toxoid A
